Laboratory results published in patent US20100261710A1, “HDAC Inhibitors” (ARQULE, INC., priority 2007, published 2010).

Tests used:
[1] = system: HDACs (nuclear HeLa extract); experiment: pan-HDAC fluorescent biochemical assay with nuclear HeLa extract; conditions: HDAC peptide substrate, 60 min at 37° C.
Protocol: Substrate was synthesized in house. Stocks were prepared in DMSO (10 mM).
Compound working solution: Compounds dissolved in assay buffer at 4× Screening concentration. Activator solution: Trypsin (10 mg/mL) diluted 1:1600 in Assay Buffer containing 4 μM TSA.
Total reaction Volume: 40 μL
Reaction was allowed to run for 60 minutes at 37° C.
2. Combine in a white ½ area well plate: 10 μl of 4× compound (or buffer), 15 μl of substrate and 15 μl of HeLa extract. Mix well
3. Incubate at 37° C. for 60 min.
4. Prepare Activator solution. Dilute Trypsin 1:1600 in Assay Buffer+4μM TSA. 20 μl is needed per assay point.
5. Add 20 μl of prepared activator solution and mix thoroughly.
The hydroxamic-acid based compounds of the present invention were tested in the biochemical assay for their pan-HDAC inhibitory activity.

[2] = system: HCT-116 cells; experiment: MTS cell viability assay, HCT-116; assay type: cell-based; conditions: Homo sapiens, HCT-116, 72 h, read-out: HCT-116, IG50, MTS (uM)
Protocol: (§1) The MTS cell viability assay was used to determine the potency of proliferation inhibitor with. MTS measures mitochondrial dehydrogenase activity and serves as surrogate readout for the number of viable cells.
(§2) For MTS assay, cells were plated in 96-well plates at 2000 cells per well and incubated in the presence of compounds for 72 hr. MTS was added to each well as instructed by manufacture (Promega) and plates were incubated for 4 h at 37° C. The absorbance of each well was measured at 490 nm using a microplate reader.

[3] = target: T1, HDAC6 (Homo sapiens, UniProt Q9UBN7); experiment: HDAC isoform assay, HDAC6
T1 sequence (Q9UBN7 1-1215): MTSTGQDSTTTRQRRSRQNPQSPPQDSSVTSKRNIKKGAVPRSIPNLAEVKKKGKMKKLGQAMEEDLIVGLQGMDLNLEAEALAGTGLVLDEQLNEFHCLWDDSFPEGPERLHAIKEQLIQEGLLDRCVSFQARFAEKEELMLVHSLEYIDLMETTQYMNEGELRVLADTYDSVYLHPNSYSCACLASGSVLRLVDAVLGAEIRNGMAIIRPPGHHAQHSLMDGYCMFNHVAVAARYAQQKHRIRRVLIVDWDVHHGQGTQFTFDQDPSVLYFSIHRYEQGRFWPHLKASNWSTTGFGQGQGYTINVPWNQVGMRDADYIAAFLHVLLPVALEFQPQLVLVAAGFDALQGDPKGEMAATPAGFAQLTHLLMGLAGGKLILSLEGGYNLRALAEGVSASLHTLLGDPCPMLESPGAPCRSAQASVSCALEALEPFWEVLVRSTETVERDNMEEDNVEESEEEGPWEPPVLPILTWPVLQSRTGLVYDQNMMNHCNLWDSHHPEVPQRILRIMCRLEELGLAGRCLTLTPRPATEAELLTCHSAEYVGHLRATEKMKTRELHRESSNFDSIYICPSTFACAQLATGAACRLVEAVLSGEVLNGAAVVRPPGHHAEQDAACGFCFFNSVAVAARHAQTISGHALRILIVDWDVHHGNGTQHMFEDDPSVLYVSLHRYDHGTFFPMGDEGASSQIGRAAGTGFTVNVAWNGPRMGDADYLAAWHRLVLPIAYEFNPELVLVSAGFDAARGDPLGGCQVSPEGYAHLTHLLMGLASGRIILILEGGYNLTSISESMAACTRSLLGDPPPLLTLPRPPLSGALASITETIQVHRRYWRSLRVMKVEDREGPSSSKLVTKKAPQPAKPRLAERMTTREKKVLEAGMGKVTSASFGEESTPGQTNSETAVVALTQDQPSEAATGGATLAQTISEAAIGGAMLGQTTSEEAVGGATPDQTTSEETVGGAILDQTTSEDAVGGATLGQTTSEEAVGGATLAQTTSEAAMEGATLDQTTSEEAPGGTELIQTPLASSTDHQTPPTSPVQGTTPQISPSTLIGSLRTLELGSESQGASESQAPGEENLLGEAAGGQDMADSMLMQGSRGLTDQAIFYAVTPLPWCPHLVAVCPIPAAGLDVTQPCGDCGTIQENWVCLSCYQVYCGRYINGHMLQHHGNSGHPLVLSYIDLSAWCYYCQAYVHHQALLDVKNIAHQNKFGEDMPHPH

[4] = target: T2, HDAC2 (Homo sapiens, UniProt Q92769); experiment: HDAC isoform assay, HDAC2; assay type: biochemical; conditions: substrate KI-177; read-out: HDAC2, IC50, ELISA (KI-177)
T2 construct: purchased BioMol

[5] = target: T3, HDAC3 (Homo sapiens, UniProt O15379); experiment: HDAC isoform assay, HDAC3; assay type: biochemical; conditions: substrate KI-177; read-out: HDAC3, IC50, ELISA (KI-177)
T3 construct: purchased BioMol
Protocol: The assay measures the ability of a small molecule to inhibit deacetylation of the substrate. Activator reagent recognizes the substrate only if the lysine has been deacetylated.
This homogeneous assay in performed in the same well without washing steps. The HDAC source, nuclear HeLa extract, is incubated with substrate in the presence of an inhibitor compound. At the end of the reaction time, activator solution, containing Trypsin and TSA, is added to stop the deacetylation reaction, and cleave the amino-coumarin from the deacetylated substrate. The plate is then read on either a Perkin Elmer Victor or Envision system using Umbilliferone filter set. […] The signal is directly proportional to the activity of HDACs and compound inhibition of HDAC is monitored by a decrease in signal.

[6] = system: HH cells; experiment: MTS cell viability assay, HH; assay type: cell-based; conditions: Homo sapiens, 72 hr, read-out: HH, IG50, MTS
Protocol: The MTS cell viability assay was used to determine the potency of proliferation inhibitor with. MTS measures mitochondrial dehydrogenase activity and serves as surrogate readout for the number of viable cells. The protocol described below is based upon the “CellTiter 96 Aqueous Non-Radioactive Cell Proliferation Assay” sold by Promega (Technical Bulletin No. 169).
as §2

[7] = target: HDAC5 (Homo sapiens, UniProt Q9UQL6); experiment: HDAC isoform assay, HDAC5
[8] = system: MJ cells; experiment: MTS cell viability assay, MJ; assay type: cell-based; conditions: 72 hr, read-out: MJ, IG50, MTS
Protocol: as §1, §2

[9] = target: T4, HDAC8 (Homo sapiens, UniProt Q9BY41); experiment: HDAC isoform assay, HDAC8
T4 sequence (Q9BY41 1-377): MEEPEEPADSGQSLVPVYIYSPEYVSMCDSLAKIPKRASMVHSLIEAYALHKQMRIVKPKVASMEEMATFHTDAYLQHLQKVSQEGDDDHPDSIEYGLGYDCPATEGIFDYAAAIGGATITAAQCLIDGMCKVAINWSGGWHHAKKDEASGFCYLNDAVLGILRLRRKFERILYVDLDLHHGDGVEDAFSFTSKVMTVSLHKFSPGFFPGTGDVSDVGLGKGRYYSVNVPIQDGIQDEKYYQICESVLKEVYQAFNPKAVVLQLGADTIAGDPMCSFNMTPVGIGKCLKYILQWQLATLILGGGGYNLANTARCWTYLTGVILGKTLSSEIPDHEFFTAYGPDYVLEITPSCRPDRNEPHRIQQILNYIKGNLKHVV

[10] = target: T5, HDAC4 (Homo sapiens, UniProt P56524); experiment: HDAC isoform assay, HDAC4; assay type: biochemical; conditions: substrate KI-177; read-out: HDAC4, IC50, ELISA (KI-177)
T5 construct: purchased BioMol

[11] = target: T6, HDAC1 (Homo sapiens, UniProt Q13547); experiment: HDAC-1 immunocapture fluorescent biochemical assay (HeLa lysate); conditions: HDAC1 immunocaptured from HeLa extract
T6 construct: cell extract containing HDAC (HeLa in these experiments); endogenous in cells; host or cells: HeLa cell extract
Protocol: The HDAC-1 assay represents a novel immunocapture assay procedure. […] The HDAC1 is captured on a protein A coated plate using HDAC1 specific antibody, and is then allowed to react with the substrate.
This assay in performed in four general steps. In the first step (FIG. 1A), cell extract containing HDAC (HeLa in these experiments) is incubated with (cell signaling) rabbit polyclonal HDAC1 antibody (rabbit IgG antibody is used for background control) to allow binding of the enzyme to the antibody. In the second step, the complexed mixture is added to the protein A covered plate which captures the antibody. In the third step, after washing away unbound proteins, substrate and inhibitor are added and deacetylation is allowed to occur. […] The plate is then read on either Victor or Perkin Elmer Envision system using Umbilliferone filter set.
• A. HeLa extract complexed with HDAC1 antibody working solution (in DPBS):
Compound working solution (in HDAC buffer):
Compounds diluted in assay buffer at 2× Screening concentration. • D. Activator solution:
Trypsin (10 mg/mL) diluted 1:1600 in assay buffer containing 4 μM TSA.
Complexing of extract with antibody was carried out at room temperature for 60 min with rocking. Binding of complexes onto protein A plate was carried out at room temperature for 60 min in 50 μL. Reaction was carried out in […], in the protein A plate for 60 minutes at 37° C. 40 μL of the reaction was moved into white ½ area plate for activation and reading.
• 1. Set PIERCE Protein A plate to block with 150 μof 5% BSA in TB ST for 60 min at room temperature. • 2. […] Dilute complexes further ([…]) by addition of 3.5 mL of PBS (final total volume of 5 mL). • 4. Wash blocked protein A plate prior to complex addition with TBST. • 5. Add 50 μl of diluted complexes to Protein A plate and incubate for 60 min at room temperature. • 6. Wash plate with TB ST. • 7. Add 25 μl of diluted compounds (in HDAC buffer) to each well and incubate for 10 min at room temperature. • 8. […] Move 40 μl of reaction to a white plate and add 20 μl of activator/developer solution, mix thoroughly. • 10. Read plate.

T6 sequence (Q13547 whole entry): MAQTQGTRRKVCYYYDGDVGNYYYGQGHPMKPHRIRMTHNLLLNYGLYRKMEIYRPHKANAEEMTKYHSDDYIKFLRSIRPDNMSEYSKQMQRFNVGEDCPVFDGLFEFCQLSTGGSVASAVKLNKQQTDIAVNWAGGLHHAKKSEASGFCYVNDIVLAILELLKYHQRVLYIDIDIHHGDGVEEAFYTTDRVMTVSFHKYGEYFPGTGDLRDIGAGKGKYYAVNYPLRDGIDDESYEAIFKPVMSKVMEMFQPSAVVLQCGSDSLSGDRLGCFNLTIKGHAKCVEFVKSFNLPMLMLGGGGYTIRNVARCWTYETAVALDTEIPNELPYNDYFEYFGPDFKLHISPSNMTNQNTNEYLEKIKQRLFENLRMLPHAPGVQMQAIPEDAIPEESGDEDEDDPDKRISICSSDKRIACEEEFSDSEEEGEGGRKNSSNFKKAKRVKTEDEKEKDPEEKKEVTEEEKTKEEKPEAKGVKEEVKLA
T3 sequence (O15379 whole entry, canonical isoform): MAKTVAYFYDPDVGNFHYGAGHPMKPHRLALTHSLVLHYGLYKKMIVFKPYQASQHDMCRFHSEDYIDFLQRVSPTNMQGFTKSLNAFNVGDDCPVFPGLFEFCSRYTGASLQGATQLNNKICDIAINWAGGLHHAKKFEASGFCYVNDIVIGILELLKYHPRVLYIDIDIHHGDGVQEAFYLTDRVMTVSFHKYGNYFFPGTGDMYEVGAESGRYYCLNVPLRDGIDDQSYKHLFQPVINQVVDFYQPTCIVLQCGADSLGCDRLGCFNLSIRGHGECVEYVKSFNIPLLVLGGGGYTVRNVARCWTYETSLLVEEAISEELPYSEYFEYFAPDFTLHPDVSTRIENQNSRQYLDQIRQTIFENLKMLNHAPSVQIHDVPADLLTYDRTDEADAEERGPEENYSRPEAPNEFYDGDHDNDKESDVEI
T3 sequence (O75376 395-489 partner limits assumed): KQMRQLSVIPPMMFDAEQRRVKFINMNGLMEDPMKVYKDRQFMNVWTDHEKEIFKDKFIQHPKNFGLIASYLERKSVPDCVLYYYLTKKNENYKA
T2 sequence (Q92769 whole entry, canonical isoform): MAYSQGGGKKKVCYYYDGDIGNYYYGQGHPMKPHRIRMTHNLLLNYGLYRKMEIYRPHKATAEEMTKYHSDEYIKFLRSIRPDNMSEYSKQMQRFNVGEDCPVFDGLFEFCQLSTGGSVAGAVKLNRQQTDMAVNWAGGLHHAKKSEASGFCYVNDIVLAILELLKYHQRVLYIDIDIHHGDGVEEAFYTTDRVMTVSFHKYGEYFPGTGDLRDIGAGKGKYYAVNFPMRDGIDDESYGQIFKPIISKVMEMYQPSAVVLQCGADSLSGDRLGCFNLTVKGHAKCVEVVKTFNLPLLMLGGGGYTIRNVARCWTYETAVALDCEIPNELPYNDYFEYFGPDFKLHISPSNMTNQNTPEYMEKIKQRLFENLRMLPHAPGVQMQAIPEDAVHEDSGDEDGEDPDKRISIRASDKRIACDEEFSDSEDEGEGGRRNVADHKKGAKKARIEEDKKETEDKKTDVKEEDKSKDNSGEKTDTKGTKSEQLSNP
T5 sequence (P56524 whole entry, canonical isoform): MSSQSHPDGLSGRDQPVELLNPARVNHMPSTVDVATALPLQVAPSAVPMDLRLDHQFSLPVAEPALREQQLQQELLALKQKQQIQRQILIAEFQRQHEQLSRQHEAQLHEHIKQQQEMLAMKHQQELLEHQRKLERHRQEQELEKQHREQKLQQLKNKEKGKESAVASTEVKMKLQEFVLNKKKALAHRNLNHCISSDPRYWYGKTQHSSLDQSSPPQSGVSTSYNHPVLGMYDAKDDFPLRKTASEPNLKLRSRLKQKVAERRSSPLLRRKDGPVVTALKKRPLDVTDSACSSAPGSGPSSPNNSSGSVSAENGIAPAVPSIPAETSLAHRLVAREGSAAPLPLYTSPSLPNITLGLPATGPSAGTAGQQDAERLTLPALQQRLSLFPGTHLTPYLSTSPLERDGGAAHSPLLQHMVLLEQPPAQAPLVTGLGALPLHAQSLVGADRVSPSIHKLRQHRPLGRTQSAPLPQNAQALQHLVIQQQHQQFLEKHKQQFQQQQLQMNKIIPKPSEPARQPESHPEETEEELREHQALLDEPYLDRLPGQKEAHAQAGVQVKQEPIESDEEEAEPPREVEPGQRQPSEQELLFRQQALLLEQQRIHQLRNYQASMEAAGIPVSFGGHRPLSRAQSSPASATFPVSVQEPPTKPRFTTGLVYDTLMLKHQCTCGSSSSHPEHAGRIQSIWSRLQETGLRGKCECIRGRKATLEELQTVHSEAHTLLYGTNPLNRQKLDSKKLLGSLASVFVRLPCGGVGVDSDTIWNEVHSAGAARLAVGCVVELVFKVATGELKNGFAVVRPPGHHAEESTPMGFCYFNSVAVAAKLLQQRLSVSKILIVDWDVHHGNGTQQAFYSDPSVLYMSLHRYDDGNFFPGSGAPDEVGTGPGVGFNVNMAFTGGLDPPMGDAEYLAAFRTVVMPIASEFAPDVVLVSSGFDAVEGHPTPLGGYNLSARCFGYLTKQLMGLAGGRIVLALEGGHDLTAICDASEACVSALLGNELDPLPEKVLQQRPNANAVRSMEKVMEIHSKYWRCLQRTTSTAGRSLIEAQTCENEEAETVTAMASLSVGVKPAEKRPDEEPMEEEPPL
Sequence of HDAC5 (Q9UQL6 whole entry, canonical isoform): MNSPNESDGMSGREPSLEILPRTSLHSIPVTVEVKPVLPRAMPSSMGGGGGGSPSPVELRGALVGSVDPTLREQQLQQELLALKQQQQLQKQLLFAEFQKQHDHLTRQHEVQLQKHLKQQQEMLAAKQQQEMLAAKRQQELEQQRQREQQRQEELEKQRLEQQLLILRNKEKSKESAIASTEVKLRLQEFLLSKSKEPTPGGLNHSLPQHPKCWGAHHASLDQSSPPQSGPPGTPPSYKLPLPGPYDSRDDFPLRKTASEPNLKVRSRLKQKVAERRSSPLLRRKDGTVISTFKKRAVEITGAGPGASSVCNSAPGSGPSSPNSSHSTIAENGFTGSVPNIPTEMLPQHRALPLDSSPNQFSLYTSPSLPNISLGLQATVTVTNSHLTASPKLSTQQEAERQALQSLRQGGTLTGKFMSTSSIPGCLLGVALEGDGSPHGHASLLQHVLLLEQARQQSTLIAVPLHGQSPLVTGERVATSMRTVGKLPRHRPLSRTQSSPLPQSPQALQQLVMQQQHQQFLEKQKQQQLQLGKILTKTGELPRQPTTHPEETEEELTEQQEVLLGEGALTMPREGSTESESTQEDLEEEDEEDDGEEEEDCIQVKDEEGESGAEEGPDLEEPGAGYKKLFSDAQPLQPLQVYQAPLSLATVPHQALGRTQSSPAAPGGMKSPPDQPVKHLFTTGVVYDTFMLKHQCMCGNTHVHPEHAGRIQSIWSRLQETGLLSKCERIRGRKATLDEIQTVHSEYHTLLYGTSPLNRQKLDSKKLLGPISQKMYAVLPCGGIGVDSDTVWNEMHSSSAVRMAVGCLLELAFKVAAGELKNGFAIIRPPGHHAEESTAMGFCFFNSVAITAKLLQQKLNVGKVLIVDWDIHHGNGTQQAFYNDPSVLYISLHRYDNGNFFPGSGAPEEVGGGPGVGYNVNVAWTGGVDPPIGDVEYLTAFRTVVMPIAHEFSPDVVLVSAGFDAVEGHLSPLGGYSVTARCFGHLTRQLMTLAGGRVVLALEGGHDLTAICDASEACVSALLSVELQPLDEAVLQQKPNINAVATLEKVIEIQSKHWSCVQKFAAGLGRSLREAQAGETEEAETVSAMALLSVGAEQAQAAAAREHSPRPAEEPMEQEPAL

CC(=O)CCC1CCN(C(=O)c2cn3c4c(cccc24)CCC3)CC1 [compound 19, 4-[1-(5,6-dihydro-4H-pyrrolo[3,2,1-ij]quinolin-1-ylcarbonyl)piperidin-4-yl]butan-2-one]
IC50 [1]: 20000 nM

O=C(CCCCCCN(Cc1ccccc1)C(=O)c1cn2c3c(cccc13)CCC2)NO [compound 14, N-benzyl-N-[7-(hydroxyamino)-7-oxoheptyl]-5,6-dihydro-4H-pyrrolo[3,2,1-ij]quinoline-1-carboxamide]
IC50 [2]: 3.8 µM | melting point: 71 to 73 °C | IC50 [1]: 780 nM

O=C(NO)c1ccc(CNC(=O)c2cn3c4c(cccc24)CCC3)cc1 [compound 6, N-{4-[(hydroxyamino)carbonyl]benzyl}-5,6-dihydro-4H-pyrrolo[3,2,1-ij]quinoline-1-carboxamide]
IC50 [3]: 7.82 nM | IC50 [2]: 0.457 µM | melting point: 191 to 192 °C | IC50 [1]: 70.8 nM | IC50 [4]: 3000 nM | IC50 [5]: 26.5 nM | IC50 [6]: 91 nM | IC50 [7]: 36.9 nM | IC50 [8]: 580 nM

CC(C)(C)OC(=O)N1CCn2cc(C(=O)NCc3ccc(C(=O)NO)cc3)c3cccc(c32)C1 [compound 15, tert-butyl 7-{[4-(hydroxycarbamoyl)benzyl]carbamoyl}-3,4-dihydro[1,4]diazepino[6,7,1-hi]indole-2(1H)-carboxylate]
IC50 [9]: 3450 nM | IC50 [3]: 203 nM | IC50 [1]: 505 nM | IC50 [4]: 10000 nM | IC50 [5]: 518 nM | IC50 [10]: 791 nM | IC50 [11]: 492 nM

O=C(CCCCCCNC(=O)c1cc2cccc3c2n1CCC3)NO [compound 23, N-[7-(hydroxyamino)-7-oxoheptyl]-5,6-dihydro-4H-pyrrolo[3,2,1-ij]quinoline-2-carboxamide]
IC50 [3]: 43 nM | melting point: 160 to 161 °C | IC50 [4]: 3000 nM | IC50 [5]: 37 nM | IC50 [10]: 28 nM | IC50 [11]: 17 nM

COc1cccc(-c2cn3cc(C(=O)NCCCCCCC(=O)NO)sc3n2)c1 [compound 22, N-[7-(hydroxyamino)-7-oxoheptyl]-6-(3-methoxyphenyl)imidazo[2,1-b][1,3]thiazole-2-carboxamide]
melting point: 209 to 211 °C | IC50 [1]: 487 nM

O=C(Cc1ccc(NC(=O)c2cn3c4c(cccc24)CCC3)cc1)NO [compound 16, N-{4-[2-(hydroxyamino)-2-oxoethyl]phenyl}-5,6-dihydro-4H-pyrrolo[3,2,1-ij]quinoline-1-carboxamide]
melting point: 199 to 202 °C | IC50 [1]: 2000 nM

O=C(CCCCNC(=O)c1cn2c3c(cccc13)CCC2)NO [compound 5, N-[5-(hydroxyamino)-5-oxopentyl]-5,6-dihydro-4H-pyrrolo[3,2,1-ij]quinoline-1-carboxamide]
IC50 [2]: 5.81 µM | melting point: 179 to 181 °C | IC50 [1]: 809 nM | IC50 [11]: 583 nM

O=C(CCCCCCCNC(=O)c1cn2c3c(cccc13)CCC2)NO
melting point: 174 to 176 °C

Nc1cc(Cl)c(Cl)cc1NC(=O)CCCCCCNC(=O)c1cn2c3c(cccc13)CCC2 [compound 21, N-{7-[(2-amino-4,5-dichlorophenyl)amino]-7-oxoheptyl}-5,6-dihydro-4H-pyrrolo[3,2,1-ij]quinoline-1-carboxamide]
melting point: 124 to 125 °C | IC50 [1]: 15500 nM

Nc1ccccc1NC(=O)CCCCCCNC(=O)c1cn2c3c(cccc13)CCC2 [compound 20, N-{7-[(2-aminophenyl)amino]-7-oxoheptyl}-5,6-dihydro-4H-pyrrolo[3,2,1-ij]quinoline-1-carboxamide]
melting point: 144 to 145 °C | IC50 [1]: 4390 nM
